According to ChEMBL document CHEMBL2086297, “Reduced pulmonary surfactant interaction of daptomycin analogs via tryptophan replacement with alternative amino acids” (2012):
≈ marks a conversion by molar mass, not a printed value.

Columns and labels:
Type in all cases: functional
Staphylococcus aureus [1] = experiment: Antibacterial activity against methicillin-susceptible Staphylococcus aureus ATCC 29213 by broth microdilution method in presence of 5% pulmonary surfactant; conditions: ATCC 29213, Pulmonary surfactant
Staphylococcus aureus [2] = experiment: Antibacterial activity against methicillin-susceptible Staphylococcus aureus ATCC 29213 by broth microdilution method in presence of 1% pulmonary surfactant; conditions: ATCC 29213, Pulmonary surfactant
Streptococcus pneumoniae = experiment: Antibacterial activity against Streptococcus pneumoniae
Staphylococcus aureus [3] = experiment: Antibacterial activity against methicillin-susceptible Staphylococcus aureus ATCC 29213 by broth microdilution method in presence of 4% human serum albumin
Staphylococcus aureus [4] = experiment: Antibacterial activity against methicillin-susceptible Staphylococcus aureus ATCC 29213 grown on calcium supplemented Mueller-Hinton broth by broth microdilution method

Row | Compound | MIC (Staphylococcus aureus [1]) | MIC (Staphylococcus aureus [2]) | MIC (Staphylococcus aureus [3]) | MIC (Staphylococcus aureus [4]) | MIC90 (Streptococcus pneumoniae)
1 | CCCCCCCCCC(=O)N[C@@H](Cc1c[nH]c2ccccc12)C(=O)N[C@H](CC(N)=O)C(=O)N[C@@H](CC(=O)O)C(=O)N[C@@H]1C(=O)NCC(=O)N[C@@H](CCCN)C(=O)N[C@@H](CC(=O)O)C(=O)N[C@H](C)C(=O)N[C@@H](CC(=O)O)C(=O)NCC(=O)N[C@H](CO)C(=O)N[C@@H]([C@H](C)CC(=O)O)C(=O)N[C@@H](CC(=O)c2ccccc2N)C(=O)O[C@@H]1C | > 32 µg/mL | 16 µg/mL | 2 µg/mL | 1 µg/mL (≈ 0.617 µM) | 0.06 µg/mL (≈ 0.037 µM)
2 | CCCCCCCCCC(=O)N[C@@H](Cc1ccc(OC)cc1)C(=O)N[C@@H](CC(N)=O)C(=O)N[C@@H](CC(=O)O)C(=O)N[C@@H]1C(=O)NCC(=O)N[C@@H](CCCN)C(=O)N[C@@H](CC(=O)O)C(=O)N[C@H](C)C(=O)N[C@@H](CC(=O)O)C(=O)NCC(=O)N[C@H](CO)C(=O)N[C@@H]([C@@H](C)CC(=O)O)C(=O)N[C@@H](CC(=O)c2ccccc2N)C(=O)O[C@@H]1C | 2 µg/mL | 2 µg/mL | 8 µg/mL | 2 µg/mL (≈ 1.24 µM) | 
3 | CCCCCCCCCC(=O)N[C@@H](Cc1ccc(C(F)(F)F)cc1)C(=O)N[C@@H](CC(N)=O)C(=O)N[C@@H](CC(=O)O)C(=O)N[C@@H]1C(=O)NCC(=O)N[C@@H](CCCN)C(=O)N[C@@H](CC(=O)O)C(=O)N[C@H](C)C(=O)N[C@@H](CC(=O)O)C(=O)NCC(=O)N[C@H](CO)C(=O)N[C@@H]([C@@H](C)CC(=O)O)C(=O)N[C@@H](CC(=O)c2ccccc2N)C(=O)O[C@@H]1C | > 32 µg/mL | 32 µg/mL | 8 µg/mL | 2 µg/mL (≈ 1.21 µM) | 
4 | CO/N=C(\C(=O)N[C@@H]1C(=O)N2C(C(=O)O)=C(CSc3nc(=O)c(O)nn3C)CS[C@H]12)c1csc(N)n1 [CEFTRIAXONE] | 2 µg/mL | 2 µg/mL | 8 µg/mL | 2 µg/mL (≈ 3.61 µM) | 

More lines, main results first:

Row | MIC (Staphylococcus aureus [1]) | MIC (Staphylococcus aureus [2]) | MIC (Staphylococcus aureus [3]) | MIC (Staphylococcus aureus [4]) | Compound | MIC90 (Streptococcus pneumoniae)
5 | 16 µg/mL | 16 µg/mL | 32 µg/mL | 16 µg/mL (≈ 9.75 µM) | CCCCCCCCCC(=O)N[C@@H](Cc1ccc(OC)c(OC)c1)C(=O)N[C@@H](CC(N)=O)C(=O)N[C@@H](CC(=O)O)C(=O)N[C@@H]1C(=O)NCC(=O)N[C@@H](CCCN)C(=O)N[C@@H](CC(=O)O)C(=O)N[C@H](C)C(=O)N[C@@H](CC(=O)O)C(=O)NCC(=O)N[C@H](CO)C(=O)N[C@@H]([C@@H](C)CC(=O)O)C(=O)N[C@@H](CC(=O)c2ccccc2N)C(=O)O[C@@H]1C | 
6 | 4 µg/mL | 2 µg/mL | 4 µg/mL | 2 µg/mL (≈ 1.24 µM) | CCCCCCCCCC(=O)N[C@@H](Cc1cccc(OC)c1)C(=O)N[C@@H](CC(N)=O)C(=O)N[C@@H](CC(=O)O)C(=O)N[C@@H]1C(=O)NCC(=O)N[C@@H](CCCN)C(=O)N[C@@H](CC(=O)O)C(=O)N[C@H](C)C(=O)N[C@@H](CC(=O)O)C(=O)NCC(=O)N[C@H](CO)C(=O)N[C@@H]([C@@H](C)CC(=O)O)C(=O)N[C@@H](CC(=O)c2ccccc2N)C(=O)O[C@@H]1C | 
7 | 8 µg/mL | 8 µg/mL | 16 µg/mL | 8 µg/mL (≈ 4.87 µM) | CCCCCCCCCC(=O)N[C@@H](Cc1ccc(OC)cc1OC)C(=O)N[C@@H](CC(N)=O)C(=O)N[C@@H](CC(=O)O)C(=O)N[C@@H]1C(=O)NCC(=O)N[C@@H](CCCN)C(=O)N[C@@H](CC(=O)O)C(=O)N[C@H](C)C(=O)N[C@@H](CC(=O)O)C(=O)NCC(=O)N[C@H](CO)C(=O)N[C@@H]([C@@H](C)CC(=O)O)C(=O)N[C@@H](CC(=O)c2ccccc2N)C(=O)O[C@@H]1C | 
8 | 8 µg/mL | 2 µg/mL | 8 µg/mL | 1 µg/mL (≈ 0.627 µM) | CCCCCCCCCC(=O)N[C@@H](Cc1ccc(C)cc1)C(=O)N[C@@H](CC(N)=O)C(=O)N[C@@H](CC(=O)O)C(=O)N[C@@H]1C(=O)NCC(=O)N[C@@H](CCCN)C(=O)N[C@@H](CC(=O)O)C(=O)N[C@H](C)C(=O)N[C@@H](CC(=O)O)C(=O)NCC(=O)N[C@H](CO)C(=O)N[C@@H]([C@@H](C)CC(=O)O)C(=O)N[C@@H](CC(=O)c2ccccc2N)C(=O)O[C@@H]1C | 
9 | 8 µg/mL | 4 µg/mL | 4 µg/mL | 2 µg/mL (≈ 1.26 µM) | CCCCCCCCCC(=O)N[C@@H](Cc1ccccc1)C(=O)N[C@@H](CC(N)=O)C(=O)N[C@@H](CC(=O)O)C(=O)N[C@@H]1C(=O)NCC(=O)N[C@@H](CCCN)C(=O)N[C@@H](CC(=O)O)C(=O)N[C@H](C)C(=O)N[C@@H](CC(=O)O)C(=O)NCC(=O)N[C@H](CO)C(=O)N[C@@H]([C@@H](C)CC(=O)O)C(=O)N[C@@H](CC(=O)c2ccccc2N)C(=O)O[C@@H]1C | 
10 | > 32 µg/mL | > 32 µg/mL | > 32 µg/mL | > 32 µg/mL | CCCCCCCCCC(=O)N[C@@H](Cc1ccc(C(=O)O)cc1)C(=O)N[C@@H](CC(N)=O)C(=O)N[C@@H](CC(=O)O)C(=O)N[C@@H]1C(=O)NCC(=O)N[C@@H](CCCN)C(=O)N[C@@H](CC(=O)O)C(=O)N[C@H](C)C(=O)N[C@@H](CC(=O)O)C(=O)NCC(=O)N[C@H](CO)C(=O)N[C@@H]([C@@H](C)CC(=O)O)C(=O)N[C@@H](CC(=O)c2ccccc2N)C(=O)O[C@@H]1C | 
